Assay results reported in ChEMBL document CHEMBL1201862, “PubChem BioAssay data set” (2004).
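Cultured in 96-well plates, cells were exposed to test compound for 48 hours across five concentrations. GI50 is the concentration that inhibits growth by half.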 Activity calls are given as the source filed them. Rule as the data show it: active = GI50 up to about 1.1 µM and inactive = higher.

Tests used:
Test in all cases: inhibition of tumour cell growth, NCI panel, 48 h
786-0 = test system: 786-0
A498 = test system: A498
ACHN = test system: ACHN
CAKI-1 = test system: CAKI-1
CCRF-CEM = test system: CCRF-CEM
COLO 205 = test system: COLO 205
DU-145 = test system: DU-145
EKVX = test system: EKVX
HCC 2998 = test system: HCC 2998
HCT-116 = test system: HCT-116
HCT-15 = test system: HCT-15
HL-60 = test system: HL-60
HOP-62 = test system: HOP-62
HOP-92 = test system: HOP-92
HT-29 = test system: HT-29
Hs-578T = test system: Hs-578T
IGROV-1 = test system: IGROV-1
KM12 = test system: KM12
M14 = test system: M14
MCF7 = test system: MCF7
MDA-MB-231 = test system: MDA-MB-231
MDA-MB-435 = test system: MDA-MB-435
MDA-N = test system: MDA-N
MOLT-4 = test system: MOLT-4
NCI-H226 = test system: NCI-H226
NCI-H23 = test system: NCI-H23
NCI-H460 = test system: NCI-H460
NCI-H522 = test system: NCI-H522
NCI/ADR-RES = test system: NCI/ADR-RES
OVCAR-3 = test system: OVCAR-3
OVCAR-4 = test system: OVCAR-4
OVCAR-5 = test system: OVCAR-5
OVCAR-8 = test system: OVCAR-8
RPMI-8226 = test system: RPMI-8226
RXF 393 = test system: RXF 393
SF-268 = test system: SF-268
SF-295 = test system: SF-295
SF-539 = test system: SF-539
SK-MEL-5 = test system: SK-MEL-5
SK-OV-3 = test system: SK-OV-3
SN12C = test system: SN12C
SNB-75 = test system: SNB-75
SR = test system: SR
SW-620 = test system: SW-620
T47D = test system: T47D
TK-10 = test system: TK-10
U-251 = test system: U-251
UACC-257 = test system: UACC-257
UACC-62 = test system: UACC-62
UO-31 = test system: UO-31
A549 = test system: A549
K562 = test system: K562
LOX IMVI = test system: LOX IMVI
Malme-3M = test system: Malme-3M
PC-3 = test system: PC-3
SK-MEL-28 = test system: SK-MEL-28
SK-MEL-2 = test system: SK-MEL-2
SNB-19 = test system: SNB-19

CCCCc1ccc(C#CC#Cc2ccc(CCCC)s2)s1
GI50 (786-0): > 100 µM (inactive)
GI50 (A498): > 100 µM (inactive)
GI50 (ACHN): > 100 µM (inactive)
GI50 (CAKI-1): > 100 µM (inactive)
GI50 (CCRF-CEM): 4.39 µM (inactive)
GI50 (COLO 205): > 100 µM (inactive)
GI50 (DU-145): > 100 µM (inactive)
GI50 (EKVX): > 100 µM (inactive)
GI50 (HCC 2998): > 100 µM (inactive)
GI50 (HCT-116): > 100 µM (inactive)
GI50 (HCT-15): > 100 µM
GI50 (HL-60): 24.8 µM (inactive)
GI50 (HOP-62): > 100 µM (inactive)
GI50 (HOP-92): > 100 µM (inactive)
GI50 (HT-29): > 100 µM (inactive)
GI50 (Hs-578T): > 100 µM (inactive)
GI50 (IGROV-1): > 100 µM (inactive)
GI50 (KM12): > 100 µM (inactive)
GI50 (M14): > 100 µM (inactive)
GI50 (MCF7): > 100 µM (inactive)
GI50 (MDA-MB-231): > 100 µM (inactive)
GI50 (MDA-MB-435): > 100 µM (inactive)
GI50 (MDA-N): > 100 µM (inactive)
GI50 (MOLT-4): > 100 µM (inactive)
GI50 (NCI-H226): > 100 µM (inactive)
GI50 (NCI-H23): > 100 µM (inactive)
GI50 (NCI-H460): > 100 µM (inactive)
GI50 (NCI-H522): > 100 µM (inactive)
GI50 (NCI/ADR-RES): > 100 µM (inactive)
GI50 (OVCAR-3): > 100 µM (inactive)
GI50 (OVCAR-4): > 100 µM (inactive)
GI50 (OVCAR-5): > 100 µM (inactive)
GI50 (OVCAR-8): > 100 µM (inactive)
GI50 (RPMI-8226): > 100 µM (inactive)
GI50 (RXF 393): > 100 µM (inactive)
GI50 (SF-268): > 100 µM (inactive)
GI50 (SF-295): > 100 µM (inactive)
GI50 (SF-539): > 100 µM (inactive)
GI50 (SK-MEL-5): > 100 µM (inactive)
GI50 (SK-OV-3): > 100 µM (inactive)
GI50 (SN12C): > 100 µM (inactive)
GI50 (SNB-75): > 100 µM (inactive)
GI50 (SR): > 100 µM (inactive)
GI50 (SW-620): > 100 µM (inactive)
GI50 (T47D): > 100 µM (inactive)
GI50 (TK-10): > 100 µM (inactive)
GI50 (U-251): > 100 µM (inactive)
GI50 (UACC-257): > 100 µM (inactive)
GI50 (UACC-62): > 100 µM (inactive)
GI50 (UO-31): > 100 µM (inactive)

CC1=CC(C)C(C)N(CCNC(=O)Nc2ccccc2)c2ccccc21 (stereo unspecified)
GI50 (786-0): 30.3 µM (inactive)
GI50 (A498): 16.2 µM (inactive)
GI50 (A549): 12 µM (inactive)
GI50 (ACHN): 15.8 µM (inactive)
GI50 (CAKI-1): 19.5 µM (inactive)
GI50 (CCRF-CEM): 20.7 µM (inactive)
GI50 (COLO 205): 16.6 µM (inactive)
GI50 (DU-145): 32.7 µM (inactive)
GI50 (EKVX): 25.9 µM (inactive)
GI50 (HCC 2998): 18.1 µM (inactive)
GI50 (HCT-116): 13.9 µM (inactive)
GI50 (HCT-15): 21.9 µM
GI50 (HOP-62): 22.2 µM (inactive)
GI50 (HT-29): 12 µM (inactive)
GI50 (Hs-578T): 2.33 µM (inactive)
GI50 (IGROV-1): 28.2 µM (inactive)
GI50 (K562): 17.1 µM (inactive)
GI50 (KM12): 26.8 µM (inactive)
GI50 (LOX IMVI): 6.81 µM (inactive)
GI50 (M14): 23.8 µM (inactive)
GI50 (MCF7): 17.4 µM (inactive)
GI50 (MDA-MB-231): 13.3 µM (inactive)
GI50 (MDA-MB-435): 25.1 µM (inactive)
GI50 (MDA-N): 22.5 µM (inactive)
GI50 (MOLT-4): 20 µM (inactive)
GI50 (Malme-3M): 24.6 µM (inactive)
GI50 (NCI-H226): 22.1 µM (inactive)
GI50 (NCI-H23): 17.6 µM (inactive)
GI50 (NCI-H460): 19.8 µM (inactive)
GI50 (NCI-H522): 12.1 µM (inactive)
GI50 (NCI/ADR-RES): 18.2 µM (inactive)
GI50 (OVCAR-3): 16 µM (inactive)
GI50 (OVCAR-4): 27.4 µM (inactive)
GI50 (OVCAR-5): 19.5 µM (inactive)
GI50 (OVCAR-8): 15.5 µM (inactive)
GI50 (PC-3): 13.2 µM (inactive)
GI50 (RPMI-8226): 14.6 µM (inactive)
GI50 (RXF 393): 11.5 µM (inactive)
GI50 (SF-268): 27.5 µM (inactive)
GI50 (SF-295): 10 µM (inactive)
GI50 (SF-539): 21.4 µM (inactive)
GI50 (SK-MEL-28): 28.6 µM (inactive)
GI50 (SK-MEL-2): 23.1 µM (inactive)
GI50 (SK-MEL-5): 14.1 µM (inactive)
GI50 (SK-OV-3): 19.1 µM (inactive)
GI50 (SN12C): 25.9 µM (inactive)
GI50 (SNB-19): 20.3 µM (inactive)
GI50 (SNB-75): 27.3 µM (inactive)
GI50 (SR): 16.3 µM (inactive)
GI50 (SW-620): 26.5 µM (inactive)
GI50 (T47D): 21.3 µM (inactive)
GI50 (TK-10): 20.9 µM (inactive)
GI50 (UACC-257): 13.7 µM (inactive)
GI50 (UACC-62): 13.6 µM (inactive)
GI50 (UO-31): 27.2 µM (inactive)

C=C(C)[C@@H]1CC[C@]2(C(=O)OC)CC[C@]3(C)[C@H](CC[C@@H]4[C@@]5(C)CC[C@H](O)C(C)(C)[C@@H]5CC[C@]43C)[C@@H]12 [METHYL BETULINATE]
GI50 (786-0): 19.7 µM (inactive)
GI50 (A498): 18.9 µM (inactive)
GI50 (A549): 17.7 µM (inactive)
GI50 (ACHN): 16.9 µM (inactive)
GI50 (CAKI-1): 20.8 µM (inactive)
GI50 (CCRF-CEM): 19.4 µM (inactive)
GI50 (DU-145): 39.8 µM (inactive)
GI50 (EKVX): 21.7 µM (inactive)
GI50 (HCT-116): 17.4 µM (inactive)
GI50 (HCT-15): 20.5 µM
GI50 (HL-60): 35.5 µM (inactive)
GI50 (HOP-62): 18.8 µM (inactive)
GI50 (HOP-92): 19.4 µM (inactive)
GI50 (HT-29): 20.5 µM (inactive)
GI50 (Hs-578T): 21.6 µM (inactive)
GI50 (IGROV-1): 18.1 µM (inactive)
GI50 (K562): 20.5 µM (inactive)
GI50 (KM12): 15.6 µM (inactive)
GI50 (LOX IMVI): 18.4 µM (inactive)
GI50 (M14): 35.4 µM (inactive)
GI50 (MCF7): 19.4 µM (inactive)
GI50 (MDA-MB-231): 34 µM (inactive)
GI50 (MDA-MB-435): 21 µM (inactive)
GI50 (MDA-N): 18.2 µM (inactive)
GI50 (MOLT-4): 18.8 µM (inactive)
GI50 (Malme-3M): 22.5 µM (inactive)
GI50 (NCI-H226): 20 µM (inactive)
GI50 (NCI-H23): 30.3 µM (inactive)
GI50 (NCI-H460): 18.5 µM (inactive)
GI50 (NCI-H522): 18.9 µM (inactive)
GI50 (NCI/ADR-RES): 19 µM (inactive)
GI50 (OVCAR-3): 19.8 µM (inactive)
GI50 (OVCAR-5): 26.8 µM (inactive)
GI50 (OVCAR-8): 21.5 µM (inactive)
GI50 (PC-3): 16.7 µM (inactive)
GI50 (RXF 393): 14.5 µM (inactive)
GI50 (SF-268): 21.4 µM (inactive)
GI50 (SF-295): 18.4 µM (inactive)
GI50 (SF-539): 13.7 µM (inactive)
GI50 (SK-MEL-28): 22.3 µM (inactive)
GI50 (SK-MEL-5): 18.8 µM (inactive)
GI50 (SN12C): 16.1 µM (inactive)
GI50 (SNB-19): 18.7 µM (inactive)
GI50 (SNB-75): 21.6 µM (inactive)
GI50 (SR): 32.3 µM (inactive)
GI50 (SW-620): 19.6 µM (inactive)
GI50 (T47D): 12 µM (inactive)
GI50 (TK-10): > 10 µM (inactive)
GI50 (U-251): 17.8 µM (inactive)
GI50 (UACC-257): 19.3 µM (inactive)
GI50 (UO-31): 22.8 µM (inactive)
